{"source": "patent US20240374535A1", "about": "“COMPOSITIONS AND METHODS FOR TREATING BIOFILM DISORDERS AND INFECTIONS” (AHV International B.V., priority 2021, published 2024)", "key": {"[1]": {"test_system": "Pseudomonas aeruginosa ATCC 27853 biofilm", "assay": "MBIC assay (biofilm inhibition, crystal violet)", "type": "cell-based, P. aeruginosa", "settings": "48 h incubation, absorbance 540 nm", "description": "(§1) The exact weighed amount was noted and the volume of solvent to reach a 80 mM dilution calculated. Half of the volume was added first, by adding Tween 80. In a second step, the other half of the volume DMSO was added and the closed tube inverted 5-10 times and then vortexed very thoroughly for at least 30 seconds. If after this procedure unsolved material was still visible, the tube was placed in a shaker at 37° C. at 150 rpm for at least 30 minutes. […] For the MBEC assay (method 1.3) the solution needs to be diluted to a final concentration of 2 mM in 0.9% saline solution and then further diluted to 1 mM, 0.5 mM, 0.25 mM and 0.125 mM in saline. Those dilutions were added as treatment to the 96 well plates with the grown biofilm (see method 3).\n(§2) Frozen aliquots of Staphylococcus epidermis ATCC 35984 and Pseudomonas aeruginosa ATCC 27853 were used to inoculate a tryptic soy agar (TSA) plate and were incubated overnight at 37° C. After incubation 3-5 well-isolated colonies with the same morphology were selected from the TSA plate and resuspended in 2 mL 0.9% saline solution with 3-6 glass beads and vortexed. The optical density of the bacterial suspension was measured at 600 nm (OD600) with a spectrophotometer (Evolution™ 201/220 UV-Visible Spectrophotometer, Thermo Fisher Scientific) and diluted to an OD600 of 0.2. The MBIC assay was performed in a 96-microtiter plate. 50 μL of TSB was added into columns 2-11, and 100 μL to column 12 for sterility control. 100 μL of the 8 mM test compound solution (method 1) was added to column 1. A two-fold dilution series of the solution in TSB was achieved by resuspending 50 μL of the 8 mM solution from column 1 in column 2. This step was repeated until column 10. The respective concentration of Tween 80 and DMSO in column 1 is at 2.5%, which is two-fold diluted throughout the plate. 50 μL of the bacterial suspension was added to column 1-11. The microtiter plates were sealed with adhesive polyethylene film for sealing microplates (Diversified Biotech) and incubated for 48 h at 37° C. After incubation the supernatant is carefully removed and the well with the biofilm washed for one time with 100 μL 0.9% saline solution. 100 μL 0.1 M HCl was added and incubated for 1 h at room temperature to fix the biofilm. After incubation the HCl was removed and 100 μL crystal violet (0.1% v/v in water) was added and incubated for 30 min at room temperature. The unbound crystal violet was removed and the wells washed one time with 100 μL demineralized water. 100 μL 30% acetic acid was added and incubated for 1 h at 37° C. and 150 rpm. The solution was resuspended and transferred to a flat-bottom 96-well plate and the absorbance measured at 540 nm with the spectrophotometer. This assay was repeated two times in two independent experiments."}, "[2]": {"test_system": "Pseudomonas aeruginosa ATCC 27853", "assay": "MIC assay (planktonic growth inhibition, OD600)", "type": "cell-based, P. aeruginosa", "settings": "24 h at 37° C.; for IC50 / IC90: Pseudomonas aeruginosa, ATCC27853; for IC50 / P. aeruginosa MIC50: minimal concentration reducing final OD600 by 50%; for IC50: read-out: P. aeruginosa MIC50; for IC90 / P. aeruginosa MIC90: minimal concentration reducing final OD600 by 90%; for IC90: read-out: P. aeruginosa MIC90", "description": "as §1\n(§3) Frozen aliquots of Staphylococcus epidermis ATCC 35984 and Pseudomonas aeruginosa ATCC 27853 were used to inoculate a tryptic soy agar (TSA) plate and incubated overnight at 37° C. After incubation 3-5 well-isolated colonies with the same morphology were selected from the TSA plate and resuspended in 2 mL 0.9% saline solution with 3-6 glass beads and vortexed. The optical density at 600 nm (OD600) of the bacterial suspension was measured with a spectrophotometer (Evolution™ 201/220 UV-Visible Spectrophotometer, Thermo Fisher Scientific) and diluted to an OD600 of 0.0008, which resembles 10^6 CFU/mL.\n(§4) The MIC assay was performed in a flat-bottom 96-microtiter plate. 50 μL of MHB-II was added into columns 2-11, and 100 μL to column 12 for sterility control. 100 μL of the 8 mM test compound solution (method 1) was added to column 1. A two-fold dilution series of the solution in MHB-II was achieved by resuspending 50 μL of the 8 mM solution from column 1 to column 2. This step was repeated until column 10. The respective concentration of Tween 80 and DMSO in column 1 was 2.5%, which is two-fold diluted throughout the plate. 50 μL of the bacterial suspension was added to column 1-11. The microtiter plates were sealed with adhesive polyethylene film for sealing microplates (Diversified Biotech) and incubated for 24 h at 37° C. After incubation the OD was measured at 600 nm with the Varioskan (Thermo Fisher Scientific). […] This assay was repeated three times in three independent experiments."}, "[3]": {"test_system": "Pseudomonas aeruginosa ATCC 27853 biofilm", "assay": "MBEC assay (biofilm eradication, CFU log reduction)", "type": "cell-based, P. aeruginosa", "settings": "48 h grown biofilm, 20 h treatment, CFU log reduction vs untreated; for minimal effective concentration: Pseudomonas aeruginosa, ATCC27853, read-out: P. aeruginosa MBEC mM with log reduction ≥1", "description": "as §1\n(§5) Frozen aliquots of Staphylococcus epidermis ATCC 35984 and Pseudomonas aeruginosa ATCC 27853 were used to inoculate 20 mL of Tryptic Soy Broth (TSB) in a 100 mL Erlenmeyer flask at 37° C. and 150 rpm and incubated overnight (Infors). The OD600 of the overnight culture was measured with a spectrophotometer (Evolution™ 201/220 UV-Visible Spectrophotometer, Thermo Fisher Scientific) and diluted to an OD600 of 0.2, which resembles 10^8 CFU/mL. The cell suspension of OD600=0.2 was seeded into a U-bottom-shaped 96 well plates by pipetting 100 μL per well in column 1-11, column 12 was filled with 100 μL medium as sterility control. The 96 well plates were sealed with adhesive polyethylene film for sealing microplates and incubated for 48 h at 37° C. at static conditions. After the biofilm growth phase, 100 μL of treatment solutions (method 1) were added to the vials resulting in treatment concentrations of 1 mM, 0.5 mM, 0.25 mM and 0.125 mM and with the respective concentration of Tween 80 and DMSO each at 0.63%, 0.32%, 0.16% and 0.08%. The same concentration was applied to four different wells of the same bacterial strain, resulting in four replicates for each concentration and strain. The treatment was incubated for 20 h at 37° C. at static conditions. After the treatment the supernatant was carefully removed and the well with the biofilm washed carefully for one time with 200 μL 0.9% saline solution. 200 μL saline solution was added and the biofilm was resuspended thoroughly. When fully homogenized then 20 μL was used for the first dilution in 180 μL 0.9% saline solution, which was prepared in a second plate. This dilution was continued until dilution step 10E−5 and 100 μL of the 10E−4 and 10E−5 dilution plated on a TSA plate. The TSA plates were incubated at 37° C. for 24 h. The colonies on the plates were enumerated, the colony forming units per mL of the dispensed biofilm and averages thereof and the log reduction in comparison with the untreated sample from the same wells plate calculated. Reduction of colony forming units goes hand in hand with the thickness of the biofilm and thus with the number bacteria that are present in the biofilm. Therefore, a significant reduction of colony forming units in the biofilm was defined at the value of log reduction ≥1 or more. This assay was repeated two times in two independent experiments)"}, "udder cleft wound": {"test_system": "udder cleft wound", "assay": "In vivo udder cleft dermatitis test: wound assessment after spray treatment", "design": "species or system cow", "settings": "for Conclusion (effect on udder cleft wound): over 60 days, all cows of the group", "description": "An example of a biofilm-related disorder is Udder Cleft Dermatitis (UCD), which relates to a chronic wound. In this Example, di-alkyl thiosulfonates, dialkyl thiosulfinates and di-alkyl disulfides were tested for their effect on cows affected by UCD.\nExperiments were performed to examine the effect of various sprays containing water (control), a test compound, or a reference compound (CTC spray, which contains chlorotetracycline hydrochloride, and was obtained from Dechra veterinary products).\n0.35 mL of the spray was sprayed on an udder cleft wound per treatment. Treatments took place once a day at t=0, at t=3 days and t=6 days. In Table 6, the assessment qualifications that are used in Table 7, are explained."}, "[4]": {"test_system": "Staphylococcus epidermis ATCC 35984", "assay": "MIC assay (planktonic growth inhibition, OD600)", "type": "cell-based, S. epidermidis", "settings": "24 h at 37° C.; for IC50 / S. epidermidis MIC50: minimal concentration reducing final OD600 by 50%; for IC50: read-out: S. epidermidis MIC50; for IC90 / S. epidermidis MIC90: minimal concentration reducing final OD600 by 90%; for IC90: read-out: S. epidermidis MIC90", "description": "as §1, §3, §4"}, "[5]": {"test_system": "Staphylococcus epidermis ATCC 35984 biofilm", "assay": "MBEC assay (biofilm eradication, CFU log reduction)", "type": "cell-based, S. epidermidis", "settings": "48 h grown biofilm, 20 h treatment, CFU log reduction vs untreated; for minimal effective concentration: read-out: S. epidermidis MBEC mM with log reduction ≥1", "description": "as §1, §5"}, "[6]": {"test_system": "Staphylococcus epidermis ATCC 35984 biofilm", "assay": "MBIC assay (biofilm inhibition, crystal violet)", "type": "cell-based, S. epidermidis", "settings": "48 h incubation, absorbance 540 nm", "description": "as §1, §2"}}}
{"smiles": "CCCSSCCC", "note": "[Di-n-propyl disulfide]", "values": [{"measurement": "P. aeruginosa MBIC90", "setting": "[1]", "value": ">4", "unit": "mM"}, {"measurement": "IC50", "setting": "[2]", "value": "> 4000", "unit": "µM"}, {"measurement": "IC90", "setting": "[2]", "value": "> 4000", "unit": "µM"}, {"measurement": "minimal effective concentration", "setting": "[3]", "value": "> 4", "unit": "mM"}, {"measurement": "inflammation of the udder cleft wound after treatment", "setting": "udder cleft wound; immediately after the treatment, later infection reduced and wound healed", "value": "fast inflammation reduction"}, {"measurement": "Conclusion (effect on udder cleft wound)", "setting": "udder cleft wound", "value": "Positive effect"}, {"measurement": "IC50", "setting": "[4]", "value": "> 4000", "unit": "µM"}, {"measurement": "IC90", "setting": "[4]", "value": "> 4000", "unit": "µM"}, {"measurement": "minimal effective concentration", "setting": "[5]", "value": "> 4", "unit": "mM"}, {"measurement": "S. epidermidis MBIC90", "setting": "[6]", "value": 4, "unit": "mM"}]}
{"smiles": "[O-][S+](Sc1ccccc1)c1ccccc1", "note": "(centres unmarked) [Di-phenyl thiosulfinate]", "values": [{"measurement": "P. aeruginosa MBIC90", "setting": "[1]", "value": ">4", "unit": "mM"}, {"measurement": "P. aeruginosa MIC50", "setting": "[2]", "value": 1000, "unit": "µM"}, {"measurement": "P. aeruginosa MIC90", "setting": "[2]", "value": 1000, "unit": "µM"}, {"measurement": "P. aeruginosa MBEC mM with log reduction ≥1", "setting": "[3]", "value": 2, "unit": "mM"}, {"measurement": "Conclusion (effect on udder cleft wound)", "setting": "udder cleft wound", "value": "No effect"}, {"measurement": "S. epidermidis MIC50", "setting": "[4]", "value": 1000, "unit": "µM"}, {"measurement": "S. epidermidis MIC90", "setting": "[4]", "value": 1000, "unit": "µM"}, {"measurement": "S. epidermidis MBEC mM with log reduction ≥1", "setting": "[5]", "value": 2, "unit": "mM"}, {"measurement": "S. epidermidis MBIC90", "setting": "[6]", "value": ">4", "unit": "mM"}]}
{"smiles": "Clc1ccc(SSc2ccc(Cl)cc2)cc1", "note": "[Bis (4-chlorophenyl) disulfide, Bis(4-chlorophenyl) disulfide]", "values": [{"measurement": "P. aeruginosa MBIC90", "setting": "[1]", "value": ">4", "unit": "mM"}, {"measurement": "IC50", "setting": "[2]", "value": 20, "unit": "µM"}, {"measurement": "IC90", "setting": "[2]", "value": 30, "unit": "µM"}, {"measurement": "minimal effective concentration", "setting": "[3]", "value": "> 1", "unit": "mM"}, {"measurement": "IC50", "setting": "[4]", "value": 10, "unit": "µM"}, {"measurement": "IC90", "setting": "[4]", "value": 30, "unit": "µM"}, {"measurement": "minimal effective concentration", "setting": "[5]", "value": "> 1", "unit": "mM"}, {"measurement": "S. epidermidis MBIC90", "setting": "[6]", "value": ">4", "unit": "mM"}]}
{"smiles": "Cc1ccc(SSc2ccc(C)cc2)cc1", "note": "[Di-p-tolyl disulfide]", "values": [{"measurement": "P. aeruginosa MBIC90", "setting": "[1]", "value": 4, "unit": "mM"}, {"measurement": "IC50", "setting": "[2]", "value": "> 4000", "unit": "µM"}, {"measurement": "IC90", "setting": "[2]", "value": "> 4000", "unit": "µM"}, {"measurement": "minimal effective concentration", "setting": "[3]", "value": "> 1", "unit": "mM"}, {"measurement": "Conclusion (effect on udder cleft wound)", "setting": "udder cleft wound", "value": "No effect"}, {"measurement": "IC50", "setting": "[4]", "value": "> 4000", "unit": "µM"}, {"measurement": "IC90", "setting": "[4]", "value": "> 4000", "unit": "µM"}, {"measurement": "minimal effective concentration", "setting": "[5]", "value": "> 1", "unit": "mM"}, {"measurement": "S. epidermidis MBIC90", "setting": "[6]", "value": ">4", "unit": "mM"}]}
{"smiles": "CC(C)S[S+]([O-])C(C)C", "note": "(centres unmarked) [Di-isopropyl thiosulfinate]", "values": [{"measurement": "P. aeruginosa MBIC90", "setting": "[1]", "value": ">4", "unit": "mM"}, {"measurement": "P. aeruginosa MIC50", "setting": "[2]", "value": 2000, "unit": "µM"}, {"measurement": "P. aeruginosa MIC90", "setting": "[2]", "value": 4000, "unit": "µM"}, {"measurement": "P. aeruginosa MBEC mM with log reduction ≥1", "setting": "[3]", "value": 0.125, "unit": "mM"}, {"measurement": "S. epidermidis MIC50", "setting": "[4]", "value": 2000, "unit": "µM"}, {"measurement": "S. epidermidis MIC90", "setting": "[4]", "value": 2000, "unit": "µM"}, {"measurement": "S. epidermidis MBEC mM with log reduction ≥1", "setting": "[5]", "value": 0.5, "unit": "mM"}, {"measurement": "S. epidermidis MBIC90", "setting": "[6]", "value": ">4", "unit": "mM"}]}
